The text below walks through data of publication PMC8066339, “Optimization of 2-Acylaminocycloalkylthiophene Derivatives for Activity against Staphylococcus aureus RnpA” (Antibiotics, 2021).

Structures are written as SMILES.

One series in a line: MTT cytotoxicity testing. Particulars: human, HEP G2 cells (human liver epithelial cells). The method, then: For the scaffold to have translational significance, it must be non-toxic to human cells. Accordingly, an initial assessment of toxicity was performed using human liver epithelial (HEP G2) cells via a 3-(4,5-dimethylthiazol-2-yl)-2,5-diphenyltetrazolium bromide (MTT) assay in the presence of up to 400 µM of each analog. […] Viability of 70% was used as the cut-off criteria for toxicity (Figure 4, dashed line), according to ISO guidelines, as described in Materials and Methods.
Human liver epithelial cells (HEP G2) were cultured in Dulbecco’s Modified Eagle Medium (DMEM; Fisher Scientific, Hampton, NH) supplemented with 10% heat inactivated fetal bovine serum (FBS; Corning Life Sciences) and 1% penicillin/streptomycin (Thermofisher Scientific). Cells were incubated at 37 °C with 5% CO2 in Nunc (Roskilde, Denmark) tissue culture flasks. Cells were grown in monolayers until exceeding 70% confluency, removed with 0.25% trypsin (Fisher Scientific), resuspended in fresh medium, and used to seed approximately 2.5 × 10^5 cells/mL into each well of a 96 well tissue culture microplate (Nunc) containing 200 µL of fresh medium. Cytotoxicity testing was conducted according to the guidelines of the International Organization for Standardization (ISO) 10993-5:2009. After 24 h of incubation, the cell media was removed, and adherent cells were washed with 1× phosphate buffered saline (PBS). Cell media was supplemented with 5% per volume of compound at final concentrations from 12.5 µM to 400 µM and incubated 20–24 h at 37 °C with 5% CO2. After incubation, medium supplemented with compound was removed from the wells and replaced with 100 µL of fresh culture medium. Then, 10 µL of 12 mM (3-(4,5-dimethylthiazol-2-yl)-2,5-diphenyltetrazolium bromide (MTT) stock reagent (CyQUANT MTT cell proliferation kit; Thermofisher Scientific) was added to each well. After labeling the cells with the MTT reagent, all but 25 µL of medium was removed from the wells, and 50 µL of DMSO was added to each well and mixed thoroughly and cells were incubated at 37 °C with 5% CO2 for 10 min. After incubation, wells were mixed again and using a SPECTRAmax5 microplate reader, absorbance was read at 540 nm. Cells were treated with 125 µg/mL mitomycin C (Fisher Scientific) to serve as a positive control and 2% DMSO as a negative control. […] All compounds were tested in two independent experiments in triplicate and cell viability was expressed as a percent of the negative control.
(In general: Tetrazolium dyes change colour on reduction, which living cells bring about.)

The test system of series [1] is S. aureus clinical isolate USA300. Description: Murine corneal infection (keratitis) model. The series is classed as in vivo, Staphylococcus aureus. Particulars: BALB/c mice, 50 µM topical 5 µL every 6 h for 48 h; not statistically different (t-test). The method, then: Corneal infections were induced by inoculating corneal scratches with S. aureus, eyes were treated with RNP0012 6 h later and every 6 h thereafter for 48 h and bacterial burden was enumerated.
In vivo efficacy studies utilizing a murine model of corneal S. aureus infection were performed as previously described. Female BALB/c mice four to six weeks of age were acquired from Charles River ([…], MA, USA) and housed according to the approved University of Rochester Medical Center Council on Animal Research (UCAR) protocol. S. aureus clinical isolate USA300 was grown overnight on both MH agar and MH broth at 37 °C. Broth cultures were centrifuged at 2000× g for 10 min at 4 °C and the pellet was resuspended in 1× sterile PBS in a volume equivalent to the starting volume. The mice were anesthetized with 100 mg kg^−1 ketamine (Par Pharmaceutica; Chestnut Ridge, NY, USA) and 10 mg kg^−1 xylazine (Akorn, Inc.; Lake Forest, IL, USA) and 0.5% proparacaine (Akorn, Inc.) was applied to the right eye of each mouse. Excess proparacaine was blotted from the ocular surface. Using a 27-gauge needle, inoculated with a single colony of S. aureus USA300, three 2 mm scratches were made across the right cornea. […] The animals were euthanized after 48 h and whole eyes were excised, homogenized, and plated to quantitate viable S. aureus colonies present. […]

One may read the viability as a read-out of living cells in per cent, often relative to untreated cells. Low readings indicate more harm to the cells, high ones less harm to the cells.

`O=C(Nc1ccc(C(F)(F)F)cc1)c1c(NC(=O)C(F)(F)F)sc2c1CCCCC2` [RNP0012] displayed a viability at 50 µM in “MTT cytotoxicity testing” of 68%. Also, the “CFU reduction in comparison to vehicle treated animals” value in series [1] came to 1.2 log CFU.
